Results from patent US6569897B1, “Alkenyldiarylmethane non-nucleoside HIV-1 reverse transcriptase inhibitors” (priority 1998, dated 2003).

Key:
in vitro = conditions: human, uninfected (mock-infected) CEM-SS cells
HIV-1RF in CEM-SS cells [1] = assay: microbe, parasite or virus in culture; conditions: Human immunodeficiency virus 1, CEM-SS, read-out: EC50 (μM), 50% inhibitory concentration for cytopathicity
HIV-1RF in CEM-SS cells [2] = conditions: HIV-1RF, CEM-SS cells

Compound | melting point [°C] | CC50 (in vitro) [µM] | EC50 (HIV-1RF in CEM-SS cells [1]) [µM] | TI, therapeutic index (CC50 divided by EC50) (HIV-1RF in CEM-SS cells [2])
C=C(c1cc(Br)c(OC)c(C(=O)OC)c1)c1cc(Br)c(OC)c(C(=O)OC)c1 [Compound 3, 3′,3″-Dibromo-4′,4″-dimethoxy-5′,5″-bis(methoxycarbonyl)-1,1-diphenylethene] | 144 to 145 | 316 | > 6.9 | 
CC=C(c1cc(Br)c(OC)c(C(=O)OC)c1)c1cc(Br)c(OC)c(C(=O)OC)c1 [Compound 4, 3′,3″-Dibromo-4′,4″-dimethoxy-5′,5″-bis(methoxycarbonyl)-1,1-diphenylpropene] |  | 10 | > 6.9 | 
COC=C(c1cc(Br)c(OC)c(C(=O)OC)c1)c1cc(Br)c(OC)c(C(=O)OC)c1 [Compound 5, 3′,3″-Dibromo-4′,4″-dimethoxy-5′,5″-bis(methoxycarbonyl)-1-methoxy-2,2-diphenylethene] |  | 22 | > 6.9 | 
COC(=O)c1cc(C(=CCCO)c2cc(Br)c(OC)c(C(=O)OC)c2)cc(Br)c1OC [Compound 7, 3′,3″-Dibromo-4-hydroxy-4′,4″dimethoxy-5′,5″-bis(methoxycarbony)-1,1-diphenyl-1-butene] |  | > 316 | 6 | >52
COC(=O)c1cc(C(=CCCN=[N+]=[N-])c2cc(Br)c(OC)c(C(=O)OC)c2)cc(Br)c1OC [Compound 9, 4-Azido-3′,3″-Dibromo-4′,4″dimethoxy-5′,5″-bis(methoxycarbony)-1,1-diphenyl-1-butene] |  | > 316 | 1.1 | >278
CCCCCC1OC1(c1cc(Br)c(OC)c(C(=O)OC)c1)c1cc(Br)c(OC)c(C(=O)OC)c1 (stereo not drawn) [Compound 12, 3′,3″-Dibromo-4′,4″-dimethoxy-5′,5″-bis(methoxycarbonyl)-1,1,-diphenyl-1-heptene Epoxide] |  | > 100 | > 6.9 | 
COC(=O)c1cc(C(=CC(=O)O)c2cc(Cl)c(OC)c(C(=O)OC)c2)cc(Cl)c1OC [Compound 14, 3′,3″-Dichloro-4′,4″-dimethoxy-5′,5″-bis(methoxycarbonyl)-3,3-diphenylpropenoic Acid] |  | 48 | > 6.9 | 
COC(=O)C=C(c1cc(Cl)c(OC)c(C(=O)OC)c1)c1cc(Cl)c(OC)c(C(=O)OC)c1 [Compound 15, Methyl 3′,3″-Dichloro-4′,4″-dimethoxy-5,5Δ-bis(methoxycarbonyl)-3,3-diphenylpropenoate] |  | 25 | > 6.9 | 
COC(=O)c1cc(C(=CC(=O)OC(C)(C)C)c2cc(Cl)c(OC)c(C(=O)OC)c2)cc(Cl)c1OC [Compound 16, tert-Butyl 3′,3″-Dichloro-4′,4″-dimethoxy-5,5″-bis(methoxycarbonyl)3,3-diphenylpropenoate] |  | > 100 | > 6.9 | 
COC(=O)c1cc(C(=CCCO)c2cc(Cl)c(OC)c(C(=O)OC)c2)cc(Cl)c1OC [Compound 18, 3′,3″-Dichloro-4-hydroxy-4′,4″dimethoxy-5′,5″-bis(methoxycarbony)-1,1-diphenyl-1-butene] |  | 16.8 | 8.6 | 2
